Assay results: patent US20230123334A1, “AMINO LIPID COMPOUND, PREPARATION METHOD THEREFOR, AND APPLICATION THEREOF” (SHENZHEN SHENXIN BIOTECHNOLOGY CO., LTD., priority 2020, published 2023)

The compounds below were run on HEK293 cells (assay: Preliminary screening as mRNA vectors, EGFP mRNA transfection of HEK293 cells). Details: EGFP mRNA 50 ng per well, 96-well plates; percentage of GFP fluorescent cells relative to total number of cells (Hoechst).
Assay type: cell-based
Outline: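 HEK293 cells in DMEM plus 10% FBS transfected in 96-well format with 50 ng EGFP mRNA per well; Lipofectamine2000 served as positive control. Read-out is the percentage of GFP-fluorescent cells among total cells, counted by Hoechst nuclear stain.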
`CCCCCCCCCCCCCCCNc1nc(NCCCN(C)C)nc(SCCCCCCCCCC)n1` [Compound D6S10N15] was tested, and the “Absolute mRNA transfection efficiency in HEK293 cells” value (from here on “Absolute mRNA transfection efficiency”) was 3.5%. In the case of `CCCCCCCCCCCCCCCCNc1nc(NCCCN(C)C)nc(SCCCCCCCCCC)n1` [Compound D6S10N16], the “Absolute mRNA transfection efficiency” value is reported as 51.5%. `CCCCCCCCCCCCCCCCCCNc1nc(NCCCN(C)C)nc(SCCCCCCCCCC)n1` [Compound D6S10N18] was tested, and the “Absolute mRNA transfection efficiency” value was 31.8%. `CCCCCCCCCCCSc1nc(NCCCCCC)nc(NCCCN(C)C)n1` [Compound D6S11N6] was tested, and the “Absolute mRNA transfection efficiency” value was 1.7%. For `CCCCCCCCCCCSc1nc(NCCCCCCC)nc(NCCCN(C)C)n1` [Compound D6S11N7], the “Absolute mRNA transfection efficiency” value was 29.1%. `CCCCCCCCCCCSc1nc(NCCCCCCCC)nc(NCCCN(C)C)n1` [Compound D6S11N8] was tested, and the “Absolute mRNA transfection efficiency” value was 16.8%. `CCCCCCCCCCCSc1nc(NCCCCCCCCC)nc(NCCCN(C)C)n1` [Compound D6S11N9] was tested, and the “Absolute mRNA transfection efficiency” value was 45.1%. In the case of `CCCCCCCCCCCNc1nc(NCCCN(C)C)nc(SCCCCCCCCCCC)n1` [Compound D6S11N11], the “Absolute mRNA transfection efficiency” value is reported as 35.5%. With `CCCCCCCCCCCCNc1nc(NCCCN(C)C)nc(SCCCCCCCCCCC)n1` [Compound D6S11N12] the “Absolute mRNA transfection efficiency” value was 15.9%. In the case of `CCCCCCCCCCCCCNc1nc(NCCCN(C)C)nc(SCCCCCCCCCCC)n1` [Compound D6S11N13], the “Absolute mRNA transfection efficiency” value is reported as 10.0%. In the case of `CCCCCCCCCCCCCCCNc1nc(NCCCN(C)C)nc(SCCCCCCCCCCC)n1` [Compound D6S11N15], the “Absolute mRNA transfection efficiency” value is reported as 13.1%. `CCCCCCCCCCCCCCCCNc1nc(NCCCN(C)C)nc(SCCCCCCCCCCC)n1` [Compound D6S11N16] was tested, and the “Absolute mRNA transfection efficiency” value was 6.2%. In the case of `CCCCCCCCCCCCCCCCCCNc1nc(NCCCN(C)C)nc(SCCCCCCCCCCC)n1` [Compound D6S11N18], the “Absolute mRNA transfection efficiency” value is reported as 14.6%. In the case of `CCCCCCCCCCCCSc1nc(NCCCCCC)nc(NCCCN(C)C)n1` [Compound D6S12N6], the “Absolute mRNA transfection efficiency” value is reported as 1.1%. `CCCCCCCCCCCCSc1nc(NCCCCCCC)nc(NCCCN(C)C)n1` [Compound D6S12N7] was tested, and the “Absolute mRNA transfection efficiency” value was 13.0%. With `CCCCCCCCCCCCSc1nc(NCCCCCCCC)nc(NCCCN(C)C)n1` [Compound D6S12N8] the “Absolute mRNA transfection efficiency” value was 30.5%. For `CCCCCCCCCCCCSc1nc(NCCCCCCCCC)nc(NCCCN(C)C)n1` [Compound D6S12N9], the “Absolute mRNA transfection efficiency” value was 24.0%. In the case of `CCCCCCCCCCCCSc1nc(NCCCCCCCCCCC)nc(NCCCN(C)C)n1` [Compound D6S12N11], the “Absolute mRNA transfection efficiency” value is reported as 14.0%. For `CCCCCCCCCCCCNc1nc(NCCCN(C)C)nc(SCCCCCCCCCCCC)n1` [Compound D6S12N12], the “Absolute mRNA transfection efficiency” value was 10.4%. `CCCCCCCCCCCCCNc1nc(NCCCN(C)C)nc(SCCCCCCCCCCCC)n1` [Compound D6S12N13] was tested, and the “Absolute mRNA transfection efficiency” value was 5.5%. In the case of `CCCCCCCCCCCCCCCNc1nc(NCCCN(C)C)nc(SCCCCCCCCCCCC)n1` [Compound D6S12N15], the “Absolute mRNA transfection efficiency” value is reported as 1.6%. In the case of `CCCCCCCCCCCCCCCCNc1nc(NCCCN(C)C)nc(SCCCCCCCCCCCC)n1` [Compound D6S12N16], the “Absolute mRNA transfection efficiency” value is reported as 1.9%. `CCCCCCCCCCCCCCCCCCNc1nc(NCCCN(C)C)nc(SCCCCCCCCCCCC)n1` [Compound D6S12N18] was tested, and the “Absolute mRNA transfection efficiency” value was 1.7%. With `CCCCCCCCCCCCCCSc1nc(NCCCCCC)nc(NCCCN(C)C)n1` [Compound D6S14N6] the “Absolute mRNA transfection efficiency” value was 59.9%. In the case of `CCCCCCCCCCCCCCSc1nc(NCCCCCCC)nc(NCCCN(C)C)n1` [Compound D6S14N7], the “Absolute mRNA transfection efficiency” value is reported as 90.8%. In the case of `CCCCCCCCCCCCCCSc1nc(NCCCCCCCC)nc(NCCCN(C)C)n1` [Compound D6S14N8], the “Absolute mRNA transfection efficiency” value is reported as 80.6%. With `CCCCCCCCCCCCCCSc1nc(NCCCCCCCCCCC)nc(NCCCN(C)C)n1` [Compound D6S14N11] the “Absolute mRNA transfection efficiency” value was 20.1%. In the case of `CCCCCCCCCCCCCCSc1nc(NCCCCCCCCCCCC)nc(NCCCN(C)C)n1` [Compound D6S14N12], the “Absolute mRNA transfection efficiency” value is reported as 17.0%. In the case of `CCCCCCCCCCCCCCSc1nc(NCCCCCCCCCCCCC)nc(NCCCN(C)C)n1` [Compound D6S14N13], the “Absolute mRNA transfection efficiency” value is reported as 5.2%. `CCCCCCCCCCCCCCCNc1nc(NCCCN(C)C)nc(SCCCCCCCCCCCCCC)n1` [Compound D6S14N15] was tested, and the “Absolute mRNA transfection efficiency” value was 0.1%. With `CCCCCCCCCCCCCCCCNc1nc(NCCCN(C)C)nc(SCCCCCCCCCCCCCC)n1` [Compound D6S14N16] the “Absolute mRNA transfection efficiency” value was 0.5%. `CCCCCCCCCCCCCCCCCCNc1nc(NCCCN(C)C)nc(SCCCCCCCCCCCCCC)n1` [Compound D6S14N18] was tested, and the “Absolute mRNA transfection efficiency” value was 0.7%. For `CCCCCCCCCCCCCCCSc1nc(NCCCCCC)nc(NCCCN(C)C)n1` [Compound D6S15N6], the “Absolute mRNA transfection efficiency” value was 37.4%. In the case of `CCCCCCCCCCCCCCCSc1nc(NCCCCCCC)nc(NCCCN(C)C)n1` [Compound D6S15N7], the “Absolute mRNA transfection efficiency” value is reported as 46.1%. With `CCCCCCCCCCCCCCCSc1nc(NCCCCCCCC)nc(NCCCN(C)C)n1` [Compound D6S15N8] the “Absolute mRNA transfection efficiency” value was 6.9%. For `CCCCCCCCCCCCCCCSc1nc(NCCCCCCCCC)nc(NCCCN(C)C)n1` [Compound D6S15N9], the “Absolute mRNA transfection efficiency” value was 61.9%. In the case of `CCCCCCCCCCCCCCCSc1nc(NCCCCCCCCCCC)nc(NCCCN(C)C)n1` [Compound D6S15N11], the “Absolute mRNA transfection efficiency” value is reported as 7.8%. In the case of `CCCCCCCCCCCCCCCSc1nc(NCCCCCCCCCCCC)nc(NCCCN(C)C)n1` [Compound D6S15N12], the “Absolute mRNA transfection efficiency” value is reported as 9.6%. For `CCCCCCCCCCCCCCCSc1nc(NCCCCCCCCCCCCC)nc(NCCCN(C)C)n1` [Compound D6S15N13], the “Absolute mRNA transfection efficiency” value was 0.8%. With `CCCCCCCCCCCCCCCNc1nc(NCCCN(C)C)nc(SCCCCCCCCCCCCCCC)n1` [Compound D6S15N15] the “Absolute mRNA transfection efficiency” value was 0.8%. In the case of `CCCCCCCCCCCCCCCCNc1nc(NCCCN(C)C)nc(SCCCCCCCCCCCCCCC)n1` [Compound D6S15N16], the “Absolute mRNA transfection efficiency” value is reported as 0.2%. With `CCCCCCCCCCCCCCCCCCNc1nc(NCCCN(C)C)nc(SCCCCCCCCCCCCCCC)n1` [Compound D6S15N18] the “Absolute mRNA transfection efficiency” value was 1.9%. For `CCCCCCCCCCCCCCCCSc1nc(NCCCCCC)nc(NCCCN(C)C)n1` [Compound D6S16N6], the “Absolute mRNA transfection efficiency” value was 96.4%. For `CCCCCCCCCCCCCCCCSc1nc(NCCCCCCC)nc(NCCCN(C)C)n1` [Compound D6S16N7], the “Absolute mRNA transfection efficiency” value was 88.3%. In the case of `CCCCCCCCCCCCCCCCSc1nc(NCCCCCCCC)nc(NCCCN(C)C)n1` [Compound D6S16N8], the “Absolute mRNA transfection efficiency” value is reported as 91.5%. In the case of `CCCCCCCCCCCCCCCCSc1nc(NCCCCCCCCC)nc(NCCCN(C)C)n1` [Compound D6S16N9], the “Absolute mRNA transfection efficiency” value is reported as 76.1%. For `CCCCCCCCCCCCCCCCSc1nc(NCCCCCCCCCCC)nc(NCCCN(C)C)n1` [Compound D6S16N11], the “Absolute mRNA transfection efficiency” value was 63.0%. For `CCCCCCCCCCCCCCCCSc1nc(NCCCCCCCCCCCC)nc(NCCCN(C)C)n1` [Compound D6S16N12], the “Absolute mRNA transfection efficiency” value was 2.0%. For `CCCCCCCCCCCCCCCCSc1nc(NCCCCCCCCCCCCC)nc(NCCCN(C)C)n1` [Compound D6S16N13], the “Absolute mRNA transfection efficiency” value was 0.5%. `CCCCCCCCCCCCCCCCSc1nc(NCCCCCCCCCCCCCCC)nc(NCCCN(C)C)n1` [Compound D6S16N15] was tested, and the “Absolute mRNA transfection efficiency” value was 0.1%. In the case of `CCCCCCCCCCCCCCCCNc1nc(NCCCN(C)C)nc(SCCCCCCCCCCCCCCCC)n1` [Compound D6S16N16], the “Absolute mRNA transfection efficiency” value is reported as 0.1%. For `CCCCCCCCCCCCCCCCCCNc1nc(NCCCN(C)C)nc(SCCCCCCCCCCCCCCCC)n1` [Compound D6S16N18], the “Absolute mRNA transfection efficiency” value was 0.0%. `CCCCCCCCCCCCCCCCCCSc1nc(NCCCCCC)nc(NCCCN(C)C)n1` [Compound D6S18N6] was tested, and the “Absolute mRNA transfection efficiency” value was 74.8%. In the case of `CCCCCCCCCCCCCCCCCCSc1nc(NCCCCCCC)nc(NCCCN(C)C)n1` [Compound D6S18N7], the “Absolute mRNA transfection efficiency” value is reported as 87.5%. In the case of `CCCCCCCCCCCCCCCCCCSc1nc(NCCCCCCCC)nc(NCCCN(C)C)n1` [Compound D6S18N8], the “Absolute mRNA transfection efficiency” value is reported as 74.5%. In the case of `CCCCCCCCCCCCCCCCCCSc1nc(NCCCCCCCCC)nc(NCCCN(C)C)n1` [Compound D6S18N9], the “Absolute mRNA transfection efficiency” value is reported as 40.1%. `CCCCCCCCCCCCCCCCCCSc1nc(NCCCCCCCCCCC)nc(NCCCN(C)C)n1` [Compound D6S18N11] was tested, and the “Absolute mRNA transfection efficiency” value was 5.7%. In the case of `CCCCCCCCCCCCCCCCCCSc1nc(NCCCCCCCCCCCC)nc(NCCCN(C)C)n1` [Compound D6S18N12], the “Absolute mRNA transfection efficiency” value is reported as 2.6%. `CCCCCCCCCCCCCCCCCCSc1nc(NCCCCCCCCCCCCC)nc(NCCCN(C)C)n1` [Compound D6S18N13] was tested, and the “Absolute mRNA transfection efficiency” value was 1.0%. For `CCCCCCCCCCCCCCCCCCSc1nc(NCCCCCCCCCCCCCCC)nc(NCCCN(C)C)n1` [Compound D6S18N15], the “Absolute mRNA transfection efficiency” value was 0.0%. `CCCCCCCCCCCCCCCCCCSc1nc(NCCCCCCCCCCCCCCCC)nc(NCCCN(C)C)n1` [Compound D6S18N16] was tested, and the “Absolute mRNA transfection efficiency” value was 0.0%. In the case of `CCCCCCCCCCCCCCCCCCNc1nc(NCCCN(C)C)nc(SCCCCCCCCCCCCCCCCCC)n1` [Compound D6S18N18], the “Absolute mRNA transfection efficiency” value is reported as 0.0%. `CCCCCCNc1nc(NCCN(CC)CC)nc(SCCCCCC)n1` [Compound D7S6N6] was tested, and the “Absolute mRNA transfection efficiency” value was 1.2%. With `CCCCCCCNc1nc(NCCN(CC)CC)nc(SCCCCCC)n1` [Compound D7S6N7] the “Absolute mRNA transfection efficiency” value was 0.0%. With `CCCCCCCCNc1nc(NCCN(CC)CC)nc(SCCCCCC)n1` [Compound D7S6N8] the “Absolute mRNA transfection efficiency” value was 3.5%. With `CCCCCCCCCNc1nc(NCCN(CC)CC)nc(SCCCCCC)n1` [Compound D7S6N9] the “Absolute mRNA transfection efficiency” value was 2.4%. With `CCCCCCCCCCCNc1nc(NCCN(CC)CC)nc(SCCCCCC)n1` [Compound D7S6N11] the “Absolute mRNA transfection efficiency” value was 3.8%.
